The nature of series [1]: Apparent permeability from apical to basolateral side in human Caco-2 cells. Format: ADME, cell-based. (In general: Caco-2 monolayers are a common model of the intestinal barrier.)
Series [2] in a line: Apparent permeability from basolateral to apical side in human Caco-2 cells. The series is classed as ADME, cell-based.
The next series is filed under the species Homo sapiens. Nature of the series: Ratio of pKi for human CCK-1R to pKi for human CCK-2R.
Series [3] can be described thus: Metabolic stability in human liver microsomes assessed as compound remaining after 15 mins. Format: ADME, Microsome. The conditions noted are these: read-out: Stability. For orientation: Liver microsomes are a subcellular fraction often used to study metabolism.
In series [4] the test system is Rattus norvegicus. Nature of the series: Inhibition of CCK8s-stimulated plasma amylase release in rat assessed as reduction in plasma amylase at 30 umol/kg, po dosed 60 mins before 10 nmol/kg, sc CCK8s challenge and measured after 6 hrs. The series is classed as functional.
A short description of series [5]: Plasma clearance in rat at 2 umol/kg, iv. Format: ADME, organism-based.
A short description of series [6]: Plasma half life in rat at 2 umol/kg, iv. The series is classed as ADME, organism-based.
Series [7] is described as follows: Volume of distribution at steady state in rat at 2 umol/kg, iv and 2 umol/kg, po. The conditions noted are these: in vivo, read-out: Vdss. Format: ADME, organism-based.
Series [8] in a line: Oral bioavailability in rat at 2 umol/kg. The series is classed as ADME, organism-based. The conditions noted are these: in vivo.
Series [9] deals with Rattus norvegicus. Description: Inhibition of iv dosed pentagastrin-stimulated gastric acid secretion in iv dosed anesthetized Ghosh and Schild rat model assessed as decrease in gastric lumen perfusate pH. The series is classed as functional, Stomach. The conditions noted are these: for ED50: Rattus norvegicus, Stomach, iv.
The target of series [10] is T1, Gastrin/cholecystokinin type B receptor (Homo sapiens, UniProt P32239).
T1 sequence (P32239 whole entry): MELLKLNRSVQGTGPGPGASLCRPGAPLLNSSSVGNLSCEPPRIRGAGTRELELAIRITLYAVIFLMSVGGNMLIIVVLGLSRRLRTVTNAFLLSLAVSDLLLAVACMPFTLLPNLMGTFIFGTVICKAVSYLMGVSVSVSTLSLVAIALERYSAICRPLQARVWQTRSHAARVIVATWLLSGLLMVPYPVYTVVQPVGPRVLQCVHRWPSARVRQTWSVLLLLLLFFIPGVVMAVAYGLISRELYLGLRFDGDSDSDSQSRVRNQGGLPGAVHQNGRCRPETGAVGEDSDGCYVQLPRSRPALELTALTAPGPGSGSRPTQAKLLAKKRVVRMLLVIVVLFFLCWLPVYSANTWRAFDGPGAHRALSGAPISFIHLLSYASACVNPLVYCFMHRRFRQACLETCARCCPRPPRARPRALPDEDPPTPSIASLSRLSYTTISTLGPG
Nature of the series: Displacement of [125I]-CCK-8S from human CCK-2R after 100 mins by liquid scintillation counting. A general note: Loss of bound radioactivity is the signal in a displacement assay; it reports binding, not function.

This is an account of results in ChEMBL document CHEMBL1156092, “Anthranilic sulfonamide CCK1/CCK2 dual receptor antagonists II: tuning of receptor selectivity and in vivo efficacy” (Bioorg Med Chem Lett, 2009).

In general, Papp A→B refers to how fast a substance crosses the layer from the apical side. In general, Papp B→A refers to the apparent permeability from the basolateral to the apical side of a cell layer. The clearance is a measure of how efficiently the substance is removed, as volume per time. A higher clearance goes with efficient removal. A word on the half-life: it is the time in which the quantity being followed falls by half. Low readings indicate fast loss, high ones slow loss. As a reminder, the bioavailability is the share of a dose that reaches the circulation, judged against a reference dose that is usually intravenous. A higher bioavailability goes with good availability. In general, ED50 refers to the dose at which the effect has come halfway, by size or by number of responders. The Ki is a measure of affinity in units of concentration, obtained from inhibition or displacement. A higher Ki goes with lower affinity.

The structures appear in SMILES notation.

`O=C(N[C@@H](Cc1ccc(F)c(Br)c1)C(=O)O)c1ccc(Br)cc1NS(=O)(=O)c1cccc2nsnc12`: the apparent permeability from apical to basolateral (Papp A→B) in [1] turned out to be 0.05 ×10⁻⁶ cm/s. Moreover, the apparent permeability from basolateral to apical (Papp B→A) in series [2] came out at 0.34 ×10⁻⁶ cm/s. Besides, the Ratio pKi in the series listed under Homo sapiens was determined as 1.6. Moreover, the remaining at 0.25 h in [3] came to 47%.

Take `O=C(N[C@@H](Cc1ccc(Cl)c(Br)c1)C(=O)O)c1ccc(Br)cc1NS(=O)(=O)c1cccc2nsnc12`: the Papp A→B in [1] was 0.1 ×10⁻⁶ cm/s. For the same molecule, the Papp B→A in series [2] is 0.19 ×10⁻⁶ cm/s. Also, the Ratio pKi in the series listed under Homo sapiens is 1. For the same molecule, in series [3], the remaining at 0.25 h is 61%.

Take `O=C(N[C@@H](Cc1ccc(F)c(Br)c1)C(=O)O)c1ccc(Br)cc1NS(=O)(=O)c1cccc2nccnc12`: the Papp A→B in series [1] amounted to 0.03 ×10⁻⁶ cm/s. Moreover, the “inhibition (INH)” value in the series on Rattus norvegicus [4] was determined as 67%. The Papp B→A in [2] turned out to be 4.36 ×10⁻⁶ cm/s. Further, the Ratio pKi in the series listed under Homo sapiens was determined as 1.8. In addition, the remaining at 0.25 h in series [3] came out at 54%.

For the molecule `O=C(N[C@@H](Cc1ccc(F)c(Br)c1)C(=O)O)c1ccc(Cl)cc1NS(=O)(=O)c1cccc2nccnc12`, the clearance in series [5] came out at 4.1 mL/min/kg. Further, the apical-to-basolateral permeability (Papp A→B) in series [1] was 0.04 ×10⁻⁶ cm/s. In addition, the apparent permeability from basolateral to apical (Papp B→A) in series [2] was 4.76 ×10⁻⁶ cm/s. This molecule also gave a half-life in series [6] of 1.5 h. In the series listed under Homo sapiens, the Ratio pKi was found to be 1.6. Besides, in series [3], the remaining at 0.25 h is 50%. Also, the Vd in series [7] is 0.145 L/kg. The bioavailability in series [8] came to 4%.

With `O=C(N[C@@H](Cc1ccc(F)c(Br)c1)C(=O)O)c1cc(Cl)c(Cl)cc1NS(=O)(=O)c1cccc2nsnc12`, in [5], the clearance was 2.6 mL/min/kg. Further, the apical-to-basolateral permeability (Papp A→B) in series [1] was 0.02 ×10⁻⁶ cm/s. Further, the “inhibition (INH)” value with Rattus norvegicus [4] was 67%. In addition, the Papp B→A in [2] came out at 0.37 ×10⁻⁶ cm/s. The half-life in series [6] was 6.2 h. For the same molecule, in series [3], the remaining at 0.25 h was determined as 76%. Besides, the Vd in [7] came out at 0.203 L/kg. The molecule further registered a bioavailability in series [8] of 21%. Further, in the series with Rattus norvegicus [9], the pED50 is listed as 5.8 and the ED50 came out at 1.6 µmol/kg.

For `O=C(N[C@@H](Cc1ccc(Cl)c(Cl)c1)C(=O)O)c1ccc(I)cc1NS(=O)(=O)c1cccc2nsnc12`, the “inhibition (INH)” value with Rattus norvegicus [4] amounted to 45%. Further, the Ratio pKi in the series filed under Homo sapiens was found to be 0.9. Moreover, the affinity in series [10], expressed as Ki, was 25.1 nM. In addition, in the series with Rattus norvegicus [9], the pED50 is 5.1 and the 50% effective dose (ED50) is 7.9 µmol/kg.

In the case of `O=C(N[C@@H](Cc1ccc(Cl)c(Br)c1)C(=O)O)c1ccc(Br)cc1NS(=O)(=O)c1cccc2nccnc12`, the Papp A→B in series [1] came to 0.1 ×10⁻⁶ cm/s. Further, the “inhibition (INH)” value in the series on Rattus norvegicus [4] amounted to 65%. Besides, the Papp B→A in series [2] was 1.97 ×10⁻⁶ cm/s. Also, the Ratio pKi in the series filed under Homo sapiens was 1. Further, in [3], the remaining at 0.25 h is 69%.

`O=C(N[C@@H](Cc1ccc(F)c(Br)c1)C(=O)O)c1cc(Cl)c(Cl)cc1NS(=O)(=O)c1cccc2nccnc12` registered a clearance in series [5] of 2 mL/min/kg. The apparent permeability from apical to basolateral (Papp A→B) in series [1] stood at 0.1 ×10⁻⁶ cm/s. In addition, the “inhibition (INH)” value in the series on Rattus norvegicus [4] was -5%. In addition, in series [2], the Papp B→A turned out to be 1.05 ×10⁻⁶ cm/s. In series [6], the half-life is 7 h. Further, in the series listed under Homo sapiens, the Ratio pKi was found to be 1.4. In addition, in series [3], the remaining at 0.25 h is 65%. Besides, the Vd in series [7] was 0.129 L/kg. This molecule also gave a bioavailability in [8] of 9%.

Molecule `O=C(N[C@@H](Cc1ccc(F)c(Br)c1)C(=O)O)c1ccc(I)cc1NS(=O)(=O)c1cccc2nsnc12` registered a clearance in series [5] of 3.1 mL/min/kg. The molecule further had a half-life in [6] of 6.4 h. Further, the Ratio pKi in the series filed under Homo sapiens was found to be 1.5. Besides, in series [7], the Vd was found to be 0.215 L/kg. This molecule returned a bioavailability in series [8] of 14%.

As to `O=C(N[C@@H](Cc1ccc(F)c(Br)c1)C(=O)O)c1ccc(Cl)cc1NS(=O)(=O)c1cccc2nsnc12`, the clearance in series [5] was found to be 3.1 mL/min/kg. Moreover, the apical-to-basolateral permeability (Papp A→B) in series [1] stood at 0.04 ×10⁻⁶ cm/s. In addition, in series [2], the apparent permeability from basolateral to apical (Papp B→A) worked out at 1.25 ×10⁻⁶ cm/s. Further, the half-life in [6] is 1.3 h. In addition, the Ratio pKi in the series listed under Homo sapiens was determined as 1.4. Also, the remaining at 0.25 h in series [3] stood at 65%. Besides, in series [7], the Vd came out at 0.105 L/kg. Moreover, the bioavailability in series [8] was 11%.
